PubChem BioAssay AID1259407 (Chemical Carcinogenesis Research Information System (CCRIS), 2018)
Active and inactive are the calls of the source. No rule for the calls is given here.

System: CCRIS mutagenicity, Ames/micronucleus/aberration tests
Test: CCRIS mutagenicity studies
[1] = Test System: AMES SALMONELLA TYPHIMURIUM, Strain/Indicator: TA98, Metabolic Activation: NONE, Method: STANDARD PLATE

## CCOC(=O)CC(SP(=O)(OC)OC)C(=O)OCC (stereo unspecified)
End Point: IN VITRO CHROMOSOMAL ABERRATIONS, Test System: CHO CELLS, Metabolic Activation: NONE
  mutagenic call: inactive; negative
Test System: AMES SALMONELLA TYPHIMURIUM, Strain/Indicator: TA97, Metabolic Activation: HAMSTER, LIVER, S-9, AROCLOR 1254 (10 OR 30%), Method: PREINCUBATION
  mutagenic call: inactive; negative
Test System: AMES SALMONELLA TYPHIMURIUM, Strain/Indicator: TA97, Metabolic Activation: NONE, Method: PREINCUBATION
  mutagenic call: inactive; negative
Test System: AMES SALMONELLA TYPHIMURIUM, Strain/Indicator: TA97, Metabolic Activation: RAT, LIVER, S-9, AROCLOR 1254 (10 OR 30%), Method: PREINCUBATION
  mutagenic call: inactive; negative
Test System: AMES SALMONELLA TYPHIMURIUM, Strain/Indicator: TA98, Metabolic Activation: HAMSTER, LIVER, S-9, AROCLOR 1254 (10 OR 30%), Method: PREINCUBATION
  mutagenic call: inactive; negative
Test System: AMES SALMONELLA TYPHIMURIUM, Strain/Indicator: TA98, Metabolic Activation: NONE, Method: PREINCUBATION
  mutagenic call: inactive; negative
[1]
  mutagenic call: inactive; negative
Test System: AMES SALMONELLA TYPHIMURIUM, Strain/Indicator: TA98, Metabolic Activation: RAT, LIVER, S-9, AROCLOR 1254 (10 OR 30%), Method: PREINCUBATION
  mutagenic call: inactive; negative
Test System: AMES SALMONELLA TYPHIMURIUM, Strain/Indicator: TA98, Metabolic Activation: RAT, LIVER, S-9, Method: STANDARD PLATE
  mutagenic call: active; positive
Test System: AMES SALMONELLA TYPHIMURIUM, Strain/Indicator: TA100, Metabolic Activation: HAMSTER, LIVER, S-9, AROCLOR 1254 (10 OR 30%), Method: PREINCUBATION
  mutagenic call: inactive; negative
Test System: AMES SALMONELLA TYPHIMURIUM, Strain/Indicator: TA100, Metabolic Activation: NONE, Method: PREINCUBATION
  mutagenic call: inactive; negative
Test System: AMES SALMONELLA TYPHIMURIUM, Strain/Indicator: TA100, Metabolic Activation: NONE, Method: STANDARD PLATE
  mutagenic call: active; positive
Test System: AMES SALMONELLA TYPHIMURIUM, Strain/Indicator: TA100, Metabolic Activation: RAT, LIVER, S-9, AROCLOR 1254 (10 OR 30%), Method: PREINCUBATION
  mutagenic call: inactive; negative
Test System: AMES SALMONELLA TYPHIMURIUM, Strain/Indicator: TA100, Metabolic Activation: RAT, LIVER, S-9, Method: STANDARD PLATE
  mutagenic call: inactive; negative
Test System: AMES SALMONELLA TYPHIMURIUM, Strain/Indicator: TA1535, Metabolic Activation: HAMSTER, LIVER, S-9, AROCLOR 1254 (10 OR 30%), Method: PREINCUBATION
  mutagenic call: inactive; negative
Test System: AMES SALMONELLA TYPHIMURIUM, Strain/Indicator: TA1535, Metabolic Activation: NONE, Method: PREINCUBATION
  mutagenic call: inactive; negative
Test System: AMES SALMONELLA TYPHIMURIUM, Strain/Indicator: TA1535, Metabolic Activation: RAT, LIVER, S-9, AROCLOR 1254 (10 OR 30%), Method: PREINCUBATION
  mutagenic call: inactive; negative

## O=C(O)/C(Cl)=C(\C(=O)O)C(Cl)Cl
Test System: AMES SALMONELLA TYPHIMURIUM, Strain/Indicator: TA97, Metabolic Activation: NONE, Method: STANDARD PLATE
  mutagenic call: inactive; negative
Test System: AMES SALMONELLA TYPHIMURIUM, Strain/Indicator: TA97, Metabolic Activation: RAT, LIVER, S-9, PHENOBARBITAL, Method: STANDARD PLATE
  mutagenic call: inactive; negative
[1]
  mutagenic call: inactive; negative
Test System: AMES SALMONELLA TYPHIMURIUM, Strain/Indicator: TA98, Metabolic Activation: RAT, LIVER, S-9, AROCLOR 1254, Method: STANDARD PLATE
  mutagenic call: inactive; negative
Test System: AMES SALMONELLA TYPHIMURIUM, Strain/Indicator: TA98, Metabolic Activation: RAT, LIVER, S-9, PHENOBARBITAL, Method: STANDARD PLATE
  mutagenic call: inactive; negative
Test System: AMES SALMONELLA TYPHIMURIUM, Strain/Indicator: TA100, Metabolic Activation: RAT, LIVER, S-9, AROCLOR 1254, Method: STANDARD PLATE
  mutagenic call: inactive; negative
Test System: AMES SALMONELLA TYPHIMURIUM, Strain/Indicator: TA100, Metabolic Activation: RAT, LIVER, S-9, PHENOBARBITAL, Method: STANDARD PLATE
  mutagenic call: inactive; negative
Test System: AMES SALMONELLA TYPHIMURIUM, Strain/Indicator: TA102, Metabolic Activation: NONE, Method: STANDARD PLATE
  mutagenic call: inactive; negative
Test System: AMES SALMONELLA TYPHIMURIUM, Strain/Indicator: TA102, Metabolic Activation: RAT, LIVER, S-9, AROCLOR 1254, Method: STANDARD PLATE
  mutagenic call: inactive; negative
